Test results published in patent US6534447B1, “Herbicidal pyridine compounds” (BASF Aktiengesellschaft, priority 1999, dated 2003).

Key:
Format in all cases: in vivo
[1] = test system: Alopecurus myosuroides (ALOMY, black grass); assay: Pre-emergence herbicidal evaluation; conditions: 3 weeks after treatment
Description: (§1) The pre-emergence herbicidal activity of the compounds of the present invention is exemplified by the following test in which the seeds of a variety of monocotyledonous and dicotyledonous plants are seperately mixed with potting soil and planted on top of approximately one inch of soil in separate post. After planting, the pots are sprayed with the selected aqueous acetone solution. containing test compound in sufficient quantity to provide the equivalent of about 0.025 to 0.4 kg per hectare of test compound per pot. The treated pots are then placed on greenhouse benches, watered and cared for in accordance with conventional greenhouse procedures. From 3 weeks after treatment, the tests are terminated and each pot is examined and rated according to the rating system set forth below. [table] [table]

[2] = test system: Abutilon theophrasti (ABUTH, velvetleaf); assay: Pre-emergence herbicidal evaluation; conditions: 3 weeks after treatment
Description: as §1

[3] = test system: Matricaria inodora (MATIN, mayweed); assay: Pre-emergence herbicidal evaluation; conditions: 3 weeks after treatment
Description: as §1

[4] = test system: Stellaria media (STEME, chickweed); assay: Pre-emergence herbicidal evaluation; conditions: 3 weeks after treatment
Description: as §1

[5] = test system: Setaria viridis (SETVI, green foxtail); assay: Pre-emergence herbicidal evaluation; conditions: 3 weeks after treatment
Description: as §1

[6] = test system: Ipomoea hederacea (IPOHE, morning glory); assay: Pre-emergence herbicidal evaluation; conditions: 3 weeks after treatment
Description: as §1

[7] = test system: Echinochloa grus galli (ECHCG, barnyard grass); assay: Pre-emergence herbicidal evaluation; conditions: 3 weeks after treatment
Description: as §1

[8] = test system: Galium aparine (GALAP, cleaver); assay: Pre-emergence herbicidal evaluation; conditions: 3 weeks after treatment
Description: as §1

[9] = test system: Alopecurus myosuroides (ALOMY, black grass); assay: Post-emergence herbicidal evaluation; conditions: 3 weeks after treatment
Experimental: (§2) These acetone solutions are diluted with water and the resulting formulations applied at dosage levels equivalent of about 0.025 to 0.4 kg per hectare of test compound per pot. After spraying the plants are placed on greenhouse benches and are cared for in the usual manner, commensurate with conventional greenhouse practices. From 3 weeks after treatment, the seedling plants are examined and rated according to the rating system provided above. A rating 0 indicates growth as untreated control, a rating 9 indicates death.

[10] = test system: Abutilon theophrasti (ABUTH, velvetleaf); assay: Post-emergence herbicidal evaluation; conditions: 3 weeks after treatment
Experimental: as §2

[11] = test system: Matricaria inodora (MATIN, mayweed); assay: Post-emergence herbicidal evaluation; conditions: 3 weeks after treatment
Experimental: as §2

[12] = test system: Dolium multiflorum (LOLMU, ryegrass); assay: Post-emergence herbicidal evaluation; conditions: rate 0.100 kg/ha, 3 weeks after treatment
Experimental: as §2

[13] = test system: Stellaria media (STEME, chickweed); assay: Post-emergence herbicidal evaluation; conditions: 3 weeks after treatment
Experimental: as §2

[14] = test system: Setaria viridis (SETVI, green foxtail); assay: Post-emergence herbicidal evaluation; conditions: 3 weeks after treatment
Experimental: as §2

[15] = test system: Ipomoea hederacea (IPOHE, morning glory); assay: Post-emergence herbicidal evaluation; conditions: 3 weeks after treatment
Experimental: as §2

[16] = test system: Echinochloa grus galli (ECHCG, barnyard grass); assay: Post-emergence herbicidal evaluation; conditions: 3 weeks after treatment
Experimental: as §2

[17] = test system: Galium aparine (GALAP, cleaver); assay: Post-emergence herbicidal evaluation; conditions: 3 weeks after treatment
Experimental: as §2

[18] = test system: Triticum aestivum (TRZAW, winter wheat); assay: Pre-emergence herbicidal evaluation (crop); conditions: 3 weeks after treatment
Description: as §1

[19] = test system: Glycine max (GLXMA, soyabeans); assay: Pre-emergence herbicidal evaluation (crop); conditions: 3 weeks after treatment
Description: as §1

Zea mays (ZEAMX, maize) = assay: Pre-emergence herbicidal evaluation (crop); conditions: 3 weeks after treatment
Description: as §1

`Cc1cc(OCC=CSC(F)(F)F)nc(Oc2cc(C(F)(F)F)nn2C)c1` [Example 2, 2-(1-Methyl-3-trifluoromethylpyrazol-5-yloxy)-4-methyl-6-(3-trifluoromethylthioprop-2-enyloxy)pyridine] was tested, and the ALOMY rating ([1]; rate 0.025 kg/ha) was 8 (8 - Approaching complete kill), the ALOMY rating ([1]; rate 0.100 kg/ha) was 8 (8 - Approaching complete kill) and the ALOMY rating ([1]; rate 0.400 kg/ha) was 8 (8 - Approaching complete kill). The ABUTH rating ([2]; rate 0.025 kg/ha) was 3 (3 - Moderate effect), the ABUTH rating ([2]; rate 0.100 kg/ha) was 7 (7 - Good herbicidal effect) and the ABUTH rating ([2]; rate 0.400 kg/ha) was 8 (8 - Approaching complete kill). The MATIN rating ([3]; rate 0.025 kg/ha) was 8 (8 - Approaching complete kill), the MATIN rating ([3]; rate 0.100 kg/ha) was 8 (8 - Approaching complete kill) and the MATIN rating ([3]; rate 0.400 kg/ha) was 9 (9 - Complete kill). The STEME rating ([4]; rate 0.025 kg/ha) was 9 (9 - Complete kill), the STEME rating ([4]; rate 0.100 kg/ha) was 9 (9 - Complete kill) and the STEME rating ([4]; rate 0.400 kg/ha) was 9 (9 - Complete kill). The SETVI rating ([5]; rate 0.025 kg/ha) was 9 (9 - Complete kill), the SETVI rating ([5]; rate 0.100 kg/ha) was 9 (9 - Complete kill) and the SETVI rating ([5]; rate 0.400 kg/ha) was 9 (9 - Complete kill). For the same compound, the IPOHE rating ([6]; rate 0.025 kg/ha) was 5 (5 - Definite injury), the IPOHE rating ([6]; rate 0.100 kg/ha) was 5 (5 - Definite injury) and the IPOHE rating ([6]; rate 0.400 kg/ha) was 8 (8 - Approaching complete kill). For the same compound, the ECHCG rating ([7]; rate 0.025 kg/ha) was 7 (7 - Good herbicidal effect), the ECHCG rating ([7]; rate 0.100 kg/ha) was 8 (8 - Approaching complete kill) and the ECHCG rating ([7]; rate 0.400 kg/ha) was 8 (8 - Approaching complete kill). The GALAP rating ([8]; rate 0.025 kg/ha) was 7 (7 - Good herbicidal effect), the GALAP rating ([8]; rate 0.400 kg/ha) was 8 (8 - Approaching complete kill) and the ALOMY rating ([9]; rate 0.025 kg/ha) was 7 (7 - Good herbicidal effect). For the same compound, the ALOMY rating ([9]; rate 0.100 kg/ha) was 7 (7 - Good herbicidal effect), the ALOMY rating ([9]; rate 0.400 kg/ha) was 7 (7 - Good herbicidal effect) and the ABUTH rating ([10]; rate 0.025 kg/ha) was 6 (6 - Herbicidal effect). For the same compound, the ABUTH rating ([10]; rate 0.100 kg/ha) was 7 (7 - Good herbicidal effect), the ABUTH rating ([10]; rate 0.400 kg/ha) was 7 (7 - Good herbicidal effect) and the MATIN rating ([11]; rate 0.025 kg/ha) was 6 (6 - Herbicidal effect). The MATIN rating ([11]; rate 0.100 kg/ha) was 6 (6 - Herbicidal effect), the MATIN rating ([11]; rate 0.400 kg/ha) was 6 (6 - Herbicidal effect) and the LOLMU rating [12] was 8 (8 - Approaching complete kill). For the same compound, the STEME rating ([13]; rate 0.025 kg/ha) was 4 (4 - Injury), the STEME rating ([13]; rate 0.100 kg/ha) was 5 (5 - Definite injury) and the STEME rating ([13]; rate 0.400 kg/ha) was 5 (5 - Definite injury). The SETVI rating ([14]; rate 0.025 kg/ha) was 7 (7 - Good herbicidal effect), the SETVI rating ([14]; rate 0.100 kg/ha) was 8 (8 - Approaching complete kill) and the SETVI rating ([14]; rate 0.400 kg/ha) was 8 (8 - Approaching complete kill). The IPOHE rating ([15]; rate 0.025 kg/ha) was 8 (8 - Approaching complete kill), the IPOHE rating ([15]; rate 0.100 kg/ha) was 9 (9 - Complete kill) and the IPOHE rating ([15]; rate 0.400 kg/ha) was 9 (9 - Complete kill). For the same compound, the ECHCG rating ([16]; rate 0.025 kg/ha) was 8 (8 - Approaching complete kill), the ECHCG rating ([16]; rate 0.100 kg/ha) was 8 (8 - Approaching complete kill) and the ECHCG rating ([16]; rate 0.400 kg/ha) was 8 (8 - Approaching complete kill). For the same compound, the GALAP rating ([17]; rate 0.025 kg/ha) was 6 (6 - Herbicidal effect), the GALAP rating ([17]; rate 0.100 kg/ha) was 7 (7 - Good herbicidal effect) and the GALAP rating ([17]; rate 0.400 kg/ha) was 7 (7 - Good herbicidal effect). The TRZAW rating ([18]; rate 0.025 kg/ha) was 2 (2 - Slight effect), the TRZAW rating ([18]; rate 0.100 kg/ha) was 3 (3 - Moderate effect) and the TRZAW rating ([18]; rate 0.400 kg/ha) was 5 (5 - Definite injury). The GLXMA rating ([19]; rate 0.025 kg/ha) was 0 (0 - No effect), the GLXMA rating ([19]; rate 0.100 kg/ha) was 2 (2 - Slight effect) and the GLXMA rating ([19]; rate 0.400 kg/ha) was 4 (4 - Injury). For the same compound, the ZEAMX rating (Zea mays (ZEAMX, maize); rate 0.025 kg/ha) was 4 (4 - Injury), the ZEAMX rating (Zea mays (ZEAMX, maize); rate 0.100 kg/ha) was 5 (5 - Definite injury) and the ZEAMX rating (Zea mays (ZEAMX, maize); rate 0.400 kg/ha) was 5 (5 - Definite injury).
